Results reported in US7973219B2, “Method for producing transgenic plants resistant to weed control compounds which disrupt the porphyrin pathways of plants” (Sumitomo Chemical Company, Limited, priority 1998, dated 2011).
Read-outs that look alike come from different tables or passages of the source.

Test system: tobacco into which bchH gene was introduced
Assay: Leaf piece chlorophyll test, tobacco into which bchH gene was introduced
Format: in vivo
Conditions: 0.3 ppm, Table 4; for activity at 0.3 ppm: Nicotiana tabacum, 168 h, 7 days in light, treated vs untreated leaf pieces, read-out: Resistant level to test compound; for Total chlorophyll content treated-leaf: leaf pieces 7 days in light place
Procedure: Then, according to the method described in Manual for Gene Manipulation of Plant (by Hirofumi UCHIMIYA, Kodan-sha Scientific, 1992), the gene was introduced into tobacco. Agrobacterium strain bearing plasmid pBIBCH was cultured at 28° C. overnight in LB medium and then leaf pieces of tobacco cultured sterilely were dipped in the liquid culture medium. The leaf pieces were cultured at room temperature for 2 days in Murashige-Skoog medium (MS-medium, described in Murasige T. and Skoog F., Physiol. Plant. (1962) 15, p 473) containing 0.8% agar, 0.1 mg/liter naphthalene acetic acid and 1.0 mg/liter benzyl aminopurine. Then, the leaf pieces were washed with sterilized water and cultured for 7 days on MS medium containing 0.8% agar, 0.1 mg/liter naphthalene acetic acid, 1.0 mg/liter benzyl aminopurine and 500 μg/ml cefotaxime. The leaf pieces were transplanted onto MS medium containing 0.8% agar, 0.1 mg/liter naphthalene acetic acid, 1.0 mg/liter benzyl aminopurine, 500 μg/ml cefotaxime and 100 μg/ml kanamycin (hereinafter referred to as selective MS medium) and cultured on the medium continuously for 4months with transplanting the tobacco leaf pieces onto fresh selective MS medium every 1 month. During culture, stem-leaf differentiated shoots were appeared from the tobacco leaf pieces, these shoots were transplanted to MS medium containing 0.8% agar, 300 μg/ml cefotaxime and 50 μg/ml kanamycin to induce roots to obtain regenerated plants. The resultant regenerated plant was transplanted and cultured on MS medium 0.8% agar and 50 μg/ml kanamycin to obtain tobacco plant into which bchH gene was introduced. Similarly, tobacco leaf pieces were infected with Agrobacterium strain bearing pNO to obtain regenerated plant from the tobacco leaf pieces and tobacco plant (hereinafter referred to as control recombinant tobacco).
The tobacco leaves into which bchH gene was introduced and control recombinant tobacco leaves obtained in Example 5 were collected and each leaf was divided into the right and left equivalent pieces along the main vein, respectively. To one piece was applied an aqueous solution containing 0.3 ppm PPO inhibitory-type herbicidal compound of Structure 8, while, to the other piece was not applied the compound. These leaf pieces were placed on MS medium containing 0.8% agar and allowed to stand at room temperature for 7 days in light place. Then, each leaf piece was ground with pestle and mortar in 5 ml of 80% aqueous acetone solution to extract chlorophyll. The extract liquid was diluted with 80% aqueous acetone solution and the absorbance was measured at 750 nm, 663 nm and 645 nm to calculate total chlorophyll content according to the method described by Macknney G., J. Biol. Chem. (1941) 140, p 315. The results obtained from 4 clones of tobacco into which bchH gene was introduced (BCH1 to 4) and control recombinant tobacco is shown in Table 4. In the table, the resistant level to the herbicidal compound was represented by percentages of the total chlorophyll content of leaf pieces treated with herbicidal compound to that of untreated leaf pieces.
The tobacco clone into which bchH gene was introduced and control recombinant tobacco were also treated in the same manner with the solution containing PPO inhibitory-type herbicidal compound represented by the above Structure 3, 7, 10, 11, 13, 17, 23, 24, 25, 27, 28, 30 or 35, and the resistant level to each herbicidal compound was measured. In the table, the resistant levels to the herbicidal compound were represented by percentages of the total chlorophyll content of leaf pieces treated with the herbicidal compound to that of untreated leaf pieces.

SMILES: C#CCOc1cc(N2C(=O)C3=C(CCCC3)C2=O)c(F)cc1Cl [Structure 8]
- activity at 0.3 ppm (clone BCH-1): 126%
- activity at 0.3 ppm (clone BCH-2): 104%
- activity at 0.3 ppm (clone BCH-3): 81.3%
- activity at 0.3 ppm (clone BCH-4): 70.2%
- Total chlorophyll content treated-leaf (clone BCH-1): 1.70 mg/g-fresh weight
- Total chlorophyll content treated-leaf (clone BCH-2): 2.14 mg/g-fresh weight
- Total chlorophyll content treated-leaf (clone BCH-3): 1.57 mg/g-fresh weight
- Total chlorophyll content treated-leaf (clone BCH-4): 1.06 mg/g-fresh weight
